What was measured:
[1] = 101.33 kPa, Liquid
[2] = excess molar enthalpy (molar enthalpy of mixing); xn = mol fraction of the nth substance listed; settings: 298.15 K, 101 kPa, Liquid, Calvet calorimetry
[3] = xn = mol fraction of the nth substance listed; settings: 101 kPa, Liquid

CC(C)CO [2-methyl-1-propanol]
[1]
Settings | mass density [kg/m3] | viscosity [mPa·s]
293.15 K | 801.28 | 3.943
298.15 K | 797.74 | 3.332
303.15 K | 794.32 | 2.884

CC(C)(C)O [2-methylpropan-2-ol]
[1]
Settings | mass density [kg/m3] | viscosity [mPa·s]
293.15 K | 795.68 | 5.486
298.15 K | 780.65 | 4.436
303.15 K | 775.76 | 3.378

O=C1CCCN1 [2-pyrrolidinone]
[1]
Settings | mass density [kg/m3] | viscosity [mPa·s]
293.15 K | 1109.84 | 15.84
298.15 K | 1106.98 | 13.07
303.15 K | 1103.38 | 10.69

O=C1CCCN1 [2-pyrrolidinone] + CCC(C)O
[2]
Settings | excess molar enthalpy [kcal/mol]
x1 = 0.0555 | 0.0404
x1 = 0.1212 | 0.0663
x1 = 0.1842 | 0.0823
x1 = 0.2443 | 0.0929
x1 = 0.3301 | 0.0988
x1 = 0.3903 | 0.0996
x1 = 0.4444 | 0.0966
x1 = 0.4998 | 0.092
x1 = 0.5887 | 0.0806
x1 = 0.6799 | 0.0665
x1 = 0.7389 | 0.0565
x1 = 0.8478 | 0.037
x1 = 0.9309 | 0.0215

[3]
Settings | mass density, 293.15 K [kg/m3] | mass density, 298.15 K [kg/m3] | mass density, 303.15 K [kg/m3] | viscosity, 293.15 K [mPa·s] | viscosity, 298.15 K [mPa·s] | viscosity, 303.15 K [mPa·s]
x1 = 0.0995 | 831.58 | 828.13 | 824.55 | 3.409 | 2.829 | 2.3
x1 = 0.1675 | 849.93 | 846.53 | 842.94 | 3.108 | 2.409 | 1.896
x1 = 0.2444 | 871.14 | 867.8 | 864.23 | 3.034 | 2.443 | 1.707
x1 = 0.2996 | 886.73 | 883.42 | 879.83 | 2.84 | 2.461 | 1.724
x1 = 0.3945 | 914.18 | 910.92 | 907.3 | 2.982 | 2.561 | 1.834
x1 = 0.4531 | 931.54 | 928.3 | 924.68 | 3.084 | 2.698 | 2.068
x1 = 0.4967 | 944.64 | 941.43 | 937.81 | 3.237 | 2.856 | 2.348
x1 = 0.5546 | 962.32 | 959.15 | 955.53 | 3.668 | 3.241 | 2.702
x1 = 0.6402 | 989.06 | 985.96 | 982.36 | 4.673 | 4.125 | 3.405
x1 = 0.7126 | 1012.23 | 1009.19 | 1005.62 | 5.995 | 5.238 | 4.304
x1 = 0.7895 | 1037.38 | 1034.41 | 1030.84 | 7.928 | 6.821 | 5.519
x1 = 0.8438 | 1055.57 | 1052.66 | 1049.12 | 9.691 | 8.277 | 6.842
x1 = 0.9096 | 1078.09 | 1075.19 | 1071.64 | 11.74 | 10.1 | 8.162
x1 = 0.9767 | 1101.54 | 1098.73 | 1095.14 | 14.73 | 12.47 | 10.15

O=C1CCCN1 [2-pyrrolidinone] + CCCCO
[2]
Settings | excess molar enthalpy [kcal/mol]
x1 = 0.0564 | 0.0234
x1 = 0.1225 | 0.039
x1 = 0.1877 | 0.0496
x1 = 0.2452 | 0.0563
x1 = 0.3266 | 0.0598
x1 = 0.3884 | 0.0603
x1 = 0.4453 | 0.0581
x1 = 0.5022 | 0.0556
x1 = 0.5963 | 0.0493
x1 = 0.6844 | 0.0412
x1 = 0.7452 | 0.0346
x1 = 0.8553 | 0.0227
x1 = 0.9278 | 0.0126

[3]
Settings | mass density, 293.15 K [kg/m3] | mass density, 298.15 K [kg/m3] | mass density, 303.15 K [kg/m3] | viscosity, 293.15 K [mPa·s] | viscosity, 298.15 K [mPa·s] | viscosity, 303.15 K [mPa·s]
x1 = 0.0956 | 834.48 | 830.55 | 826.97 | 3.3 | 2.884 | 2.456
x1 = 0.1784 | 856.72 | 852.86 | 849.3 | 3.346 | 3.05 | 2.431
x1 = 0.2445 | 874.89 | 871.15 | 867.57 | 3.373 | 3.071 | 2.433
x1 = 0.3055 | 892 | 888.27 | 884.73 | 3.548 | 3.028 | 2.504
x1 = 0.3874 | 915.45 | 911.87 | 908.31 | 3.595 | 3.119 | 2.638
x1 = 0.4434 | 931.79 | 928.29 | 924.72 | 3.893 | 3.426 | 2.899
x1 = 0.4996 | 948.45 | 945.03 | 941.5 | 4.198 | 3.74 | 3.211
x1 = 0.5944 | 977.19 | 973.95 | 970.39 | 5.167 | 4.682 | 3.921
x1 = 0.6573 | 996.67 | 993.5 | 990.11 | 6.087 | 5.497 | 4.578
x1 = 0.7236 | 1017.57 | 1014.53 | 1011.05 | 7.353 | 6.572 | 5.384
x1 = 0.7983 | 1041.7 | 1038.72 | 1035.32 | 9.017 | 8.117 | 6.428
x1 = 0.8554 | 1060.58 | 1057.59 | 1054.15 | 10.75 | 9.56 | 7.469
x1 = 0.9121 | 1079.61 | 1076.71 | 1073.26 | 12.57 | 11.01 | 8.726
x1 = 0.9778 | 1102.22 | 1099.35 | 1095.78 | 14.88 | 12.7 | 10.3

CCCCO [butan-1-ol]
[1]
Settings | mass density [kg/m3] | viscosity [mPa·s]
293.15 K | 809.52 | 2.941
298.15 K | 805.54 | 2.572
303.15 K | 801.92 | 2.275

CCC(C)O (centres undefined) [butan-2-ol]
[1]
Settings | mass density [kg/m3] | viscosity [mPa·s]
293.15 K | 805.54 | 3.625
298.15 K | 802.06 | 2.998
303.15 K | 798.45 | 2.489

Reference: the NIST ThermoML archive (doi:10.1021/je801006q)
